Measured values: patent publication US20260262643A1, “HERBICIDAL BENZOXAZINES” (FMC CORPORATION, priority 2022, published 2026)

What was measured:
soybean [1] = assay: Test A postemergence; assay type: in vivo, Glycine max; settings: postemergence, 10 days
How it was run: (§1)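 Loam/sand soil; pre-em directed soil spray at planting, post-em spray at 1–2 leaf (2–10 cm). Compound in non-phytotoxic solvent + surfactant. Greenhouse 10 d; visual injury vs untreated, 0 = no effect, 100 = complete control.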

pigweed, palmer [2] = assay: Test A postemergence; assay type: in vivo, Amaranthus palmeri; settings: postemergence, 10 days
How it was run: as §1

wheat [3] = assay: Test A preemergence; assay type: in vivo, Triticum aestivum; settings: 0 to 100 scale
How it was run: as §1

barnyardgrass [4] = assay: Test A preemergence; assay type: in vivo, Echinochloa crusgalli; settings: visual injury after 10 days, 0 to 100 scale, 0 is no effect, 100 is complete control
Source text: (§2) Seeds of plant species selected from barnyardgrass (Echinochloa crusgalli), blackgrass (Alopecurus myosuroides), corn (Zea mays), foxtail, giant (giant foxtail, Setaria faberi), goosegrass (Eleusine indica), kochia (Bassia scoparia), oat, wild (wild oat, Avena fatua), pigweed, palmer (palmer amaranth, palmer pigweed, Amaranthus palmeri), Pigweed, Redroot (redroot pigweed, Amaranthus retroflexus), ragweed (common ragweed, Ambrosia artemisiifolia), ryegrass, Italian (italian ryegrass, Lolium multiflorum), soybean (Glycine max), and wheat (Triticum aestivum) were planted into a blend of loam soil and sand and treated preemergence with a directed soil spray using test chemicals formulated in a non-phytotoxic solvent mixture which included a surfactant. At the same time, plants selected from these crops and weed species and also galium (catchweed bedstraw, Galium aparine) and horseweed (Erigeron canadensis) were planted in pots containing the same blend of loam soil and sand and treated with postemergence applications of test chemicals formulated in the same manner. Plants ranged in height from 2 to 10 cm and were in the one- to two-leaf stage for the postemergence treatment. Treated plants and untreated controls were maintained in a greenhouse for 10 days, after which time all treated plants were compared to untreated controls and visually evaluated for injury. Plant response ratings, summarized in Table A, are based on a 0 to 100 scale where 0 is no effect and 100 is complete control. A dash (-) response means no test result.

corn [5] = assay: Test A postemergence; assay type: in vivo, Zea mays; settings: postemergence, 10 days
How it was run: as §1

rice = assay: Test B flooded paddy test; assay type: in vivo, Oryza sativa; settings: 250 g ai/ha, Flood, 13 days, 0 to 100 scale (0 no effect, 100 complete control)
How it was run: (§3)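 Plants at the 2-leaf stage were flooded to 3 cm above the soil, and test compounds were applied directly into the paddy water, with that depth held throughout. After 13 days in a greenhouse, injury was rated visually against untreated controls on a 0–100 scale (100 = complete control).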

wheat [6] = assay: Test A postemergence; assay type: in vivo, Triticum aestivum; settings: postemergence, 10 days
How it was run: as §1

ragweed [7] = assay: Test A postemergence; assay type: in vivo, Ambrosia artemisiifolia; settings: postemergence, 10 days
How it was run: as §1

blackgrass [8] = assay: Test A preemergence; assay type: in vivo, Alopecurus myosuroides; settings: 0 to 100 scale
How it was run: as §1

barnyardgrass [9] = assay: Test A postemergence; assay type: in vivo, Echinochloa crusgalli; settings: postemergence, 10 days
Source text: as §2

oat, wild [10] = assay: Test A postemergence; assay type: in vivo, Avena fatua; settings: postemergence, 10 days
How it was run: as §1

blackgrass [11] = assay: Test A postemergence; assay type: in vivo, Alopecurus myosuroides; settings: postemergence, 10 days
How it was run: as §1

ducksalad = assay: Test B flooded paddy test; assay type: in vivo, Heteranthera limosa; settings: 250 g ai/ha, Flood, 13 days, 0 to 100 scale (0 no effect, 100 complete control)
How it was run: as §3

pigweed, palmer [12] = assay: Test A preemergence; assay type: in vivo, Amaranthus palmeri; settings: 0 to 100 scale
How it was run: as §1

galium = assay: Test A postemergence; assay type: in vivo, Galium aparine; settings: postemergence, 10 days
How it was run: as §1

sedge, umbrella = assay: Test B flooded paddy test; assay type: in vivo, Cyperus difformis; settings: 250 g ai/ha, Flood, 13 days, 0 to 100 scale (0 no effect, 100 complete control)
How it was run: as §3

soybean [13] = assay: Test A preemergence; assay type: in vivo, Glycine max; settings: 0 to 100 scale
How it was run: as §1

kochia [14] = assay: Test A preemergence; assay type: in vivo, Bassia scoparia; settings: 0 to 100 scale
How it was run: as §1

ryegrass, Italian [15] = assay: Test A preemergence; assay type: in vivo, Lolium multiflorum; settings: 0 to 100 scale
How it was run: as §1

ryegrass, Italian [16] = assay: Test A postemergence; assay type: in vivo, Lolium multiflorum; settings: postemergence, 10 days
How it was run: as §1

corn [17] = assay: Test A preemergence; assay type: in vivo, Zea mays; settings: 0 to 100 scale
How it was run: as §1

barnyardgrass [18] = assay: Test B flooded paddy test; assay type: in vivo, Echinochloa crus-galli; settings: 250 g ai/ha, Flood, 13 days, 0 to 100 scale (0 no effect, 100 complete control)
How it was run: as §3

horseweed = assay: Test A postemergence; assay type: in vivo, Erigeron canadensis; settings: postemergence, 10 days
How it was run: as §1

kochia [19] = assay: Test A postemergence; assay type: in vivo, Bassia scoparia; settings: postemergence, 10 days
How it was run: as §1

ragweed [20] = assay: Test A preemergence; assay type: in vivo, Ambrosia artemisiifolia; settings: 0 to 100 scale
How it was run: as §1

oat, wild [21] = assay: Test A preemergence; assay type: in vivo, Avena fatua; settings: 0 to 100 scale
How it was run: as §1

[22] = 125 g ai/ha, 0 to 100 scale, 0 no effect, 100 complete control
[23] = 500 g ai/ha, visual injury, 0 to 100 scale (0 no effect, 100 complete control)
[24] = 500 g ai/ha, visual injury after 10 days, 0 is no effect, 100 is complete control

C[C@H]1CN(C(=O)c2cc(I)cc(-n3cncn3)c2)c2cccc(Cl)c2O1 [Compound 137]
Soybean plant response rating (soybean [1]; [22]): 80 | Plant response rating, Soybean (soybean [1]; [23]): 90 | Pigweed, Palmer plant response rating (pigweed, palmer [2]; [22]): 30 | Plant response rating, Pigweed, Palmer (pigweed, palmer [2]; [23]): 60 | Plant response rating, Wheat (wheat [3]; 125 g ai/ha): 0 | Plant response rating, Wheat (wheat [3]; [24]): 0 | Plant response rating, Barnyardgrass (barnyardgrass [4]; 125 g ai/ha): 0 | Plant response rating, Barnyardgrass (barnyardgrass [4]; 500 g ai/ha): 40 | Corn plant response rating (corn [5]; [22]): 10 | Plant response rating, Corn (corn [5]; [23]): 10 | Plant response rating, Rice (rice): 0 | Wheat plant response rating (wheat [6]; [22]): 10 | Plant response rating, Wheat (wheat [6]; [23]): 10 | Ragweed plant response rating (ragweed [7]; [22]): 30 | Plant response rating, Ragweed (ragweed [7]; [23]): 30 | Plant response rating, Blackgrass (blackgrass [8]; 125 g ai/ha): 0 | Plant response rating, Blackgrass (blackgrass [8]; [24]): 30 | Barnyardgrass plant response rating (barnyardgrass [9]; [22]): 10 | Plant response rating, Barnyardgrass (barnyardgrass [9]; [23]): 10 | Oat, Wild plant response rating (oat, wild [10]; [22]): 0 | Plant response rating, Oat, Wild (oat, wild [10]; [23]): 0 | Blackgrass plant response rating (blackgrass [11]; [22]): 20 | Plant response rating, Blackgrass (blackgrass [11]; [23]): 70 | Plant response rating, Ducksalad (ducksalad): 0 | Plant response rating, Pigweed, Palmer (pigweed, palmer [12]; 125 g ai/ha): 10 | Plant response rating, Pigweed, Palmer (pigweed, palmer [12]; [24]): 80 | Galium plant response rating (galium; [22]): 80 | Plant response rating, Galium (galium; [23]): 90 | Plant response rating, Sedge, Umbrella (sedge, umbrella): 0 | Plant response rating, Soybean (soybean [13]; 125 g ai/ha): 0 | Plant response rating, Soybean (soybean [13]; [24]): 0 | Plant response rating, Kochia (kochia [14]; 125 g ai/ha): 0 | Plant response rating, Kochia (kochia [14]; [24]): 0 | Plant response rating, Ryegrass, Italian (ryegrass, Italian [15]; 125 g ai/ha): 70 | Plant response rating, Ryegrass, Italian (ryegrass, Italian [15]; [24]): 80 | Ryegrass, Italian plant response rating (ryegrass, Italian [16]; [22]): 20 | Plant response rating, Ryegrass, Italian (ryegrass, Italian [16]; [23]): 30 | Plant response rating, Corn (corn [17]; 125 g ai/ha): 0 | Plant response rating, Corn (corn [17]; [24]): 50 | Plant response rating, Barnyardgrass (barnyardgrass [18]): 0 | Horseweed plant response rating (horseweed; [22]): 0 | Plant response rating, Horseweed (horseweed; [23]): 30 | Kochia plant response rating (kochia [19]; [22]): 30 | Plant response rating, Kochia (kochia [19]; [23]): 70 | Plant response rating, Ragweed (ragweed [20]; 125 g ai/ha): 0 | Plant response rating, Ragweed (ragweed [20]; [24]): 0 | Plant response rating, Oat, Wild (oat, wild [21]; 125 g ai/ha): 0 | Plant response rating, Oat, Wild (oat, wild [21]; [24]): 0
